“And” between values parts separate entries of the source, which are not always exact repeats. Equal values may be shown once. Inconclusive results and toxic doses are left out.
Test system: BDF1 mice, intracerebral L1210 leukemia, survival T/C
Experiment: NCI In Vivo Anticancer Drug Screen. Data for tumor model L1210 Leukemia (intracerebral) in B6D2F1 (BDF1) mice
Conditions: endpoint: mean survival time, higher = longer survival
Description: The antitumor activity of compounds was measured in mice bearing transplantable tumors. Survival or tumor size were measured and the results are expressed as the measurement made in the treated group (T) divided by the measurement made in the vehicle treated control group (C). The tumor model used in this assay is L1210 Leukemia (intracerebral) in B6D2F1 (BDF1) mice

[1] = dose: 67.0 mg/kg/injection, schedule: Q01DX001 (ip), vehicle: carboxymethylcellulose (CMC)
[2] = dose: 100.0 mg/kg/injection, schedule: Q01DX001 (ip), vehicle: carboxymethylcellulose (CMC)

## CC[C@H]1CN2CCc3cc(OC)c(OC)cc3[C@@H]2C[C@@H]1C[C@H]1NCCc2cc(OC)c(OC)cc21
dose: 1.0 mg/kg/injection, schedule: Q01DX005 (ip), vehicle: saline
  T/C: 101 % of control
dose: 1.0 mg/kg/injection, schedule: Q01DX009 (ip), vehicle: saline
  T/C: 100 % of control
dose: 2.0 mg/kg/injection, schedule: Q01DX005 (ip), vehicle: saline
  T/C: 100 % of control
dose: 2.0 mg/kg/injection, schedule: Q01DX009 (ip), vehicle: saline
  T/C: 98 % of control
dose: 2.0 mg/kg/injection, schedule: Q04DX003 (ip), vehicle: saline
  T/C: 101 % of control
dose: 4.0 mg/kg/injection, schedule: Q01DX005 (ip), vehicle: saline
  T/C: 98 % of control
dose: 4.0 mg/kg/injection, schedule: Q01DX009 (ip), vehicle: saline
  T/C: 101 % of control
dose: 4.0 mg/kg/injection, schedule: Q04DX003 (ip), vehicle: saline
  T/C: 101 % of control
dose: 4.0 mg/kg/injection, schedule: Q08DX002 (ip), vehicle: saline
  T/C: 100 % of control
dose: 8.0 mg/kg/injection, schedule: Q01DX005 (ip), vehicle: saline
  T/C: 98 % of control
dose: 8.0 mg/kg/injection, schedule: Q01DX009 (ip), vehicle: saline
  T/C: 100 % of control
dose: 8.0 mg/kg/injection, schedule: Q04DX003 (ip), vehicle: saline
  T/C: 96 % of control
dose: 8.0 mg/kg/injection, schedule: Q08DX002 (ip), vehicle: saline
  T/C: 97 % of control
dose: 16.0 mg/kg/injection, schedule: Q01DX005 (ip), vehicle: saline
  T/C: 87 % of control
dose: 16.0 mg/kg/injection, schedule: Q04DX003 (ip), vehicle: saline
  T/C: 104 % of control
dose: 16.0 mg/kg/injection, schedule: Q08DX002 (ip), vehicle: saline
  T/C: 100 % of control
dose: 32.0 mg/kg/injection, schedule: Q04DX003 (ip), vehicle: saline
  T/C: 106 % of control
dose: 32.0 mg/kg/injection, schedule: Q08DX002 (ip), vehicle: saline
  T/C: 112 % of control

## CC1CCCC(NC(=O)N(CCCl)N=O)C1 (stereo not drawn)
dose: 27.0 mg/kg/injection, schedule: Q01DX001 (ip), vehicle: other
  T/C: 174 % of control
dose: 42.0 mg/kg/injection, schedule: Q01DX001 (ip), vehicle: other
  T/C: 150 % of control and 251 % of control
dose: 62.0 mg/kg/injection, schedule: Q01DX001 (ip), vehicle: other
  T/C: 256 % of control and 273 % of control
dose: 71.0 mg/kg/injection, schedule: Q01DX001 (ip), vehicle: other
  T/C: 261 % of control
dose: 93.0 mg/kg/injection, schedule: Q01DX001 (ip), vehicle: other
  T/C: 205 % of control and 223 % of control
dose: 286.0 mg/kg/injection, schedule: Q01DX001 (ip), vehicle: other
  T/C: 92 % of control

## O=NN(CCCl)C(=O)N[C@@H]1CCCC[C@H]1NC(=O)N(CCCl)N=O
[1]
  T/C: 118 % of control
dose: 72.0 mg/kg/injection, schedule: Q01DX001 (ip), vehicle: carboxymethylcellulose (CMC)
  T/C: 124 % of control
[2]
  T/C: 124 % of control
dose: 150.0 mg/kg/injection, schedule: Q01DX001 (ip), vehicle: carboxymethylcellulose (CMC)
  T/C: 162 % of control
dose: 240.0 mg/kg/injection, schedule: Q01DX001 (ip), vehicle: carboxymethylcellulose (CMC)
  T/C: 166 % of control

## O=NN(CCCl)C(=O)CCCCC(=O)N(CCCl)N=O
dose: 44.0 mg/kg/injection, schedule: Q01DX001 (ip), vehicle: carboxymethylcellulose (CMC)
  T/C: 95 % of control
[1]
  T/C: 96 % of control
[2]
  T/C: 94 % of control

## O=NN(CCF)C(=O)NCCF
dose: 3.5 mg/kg/injection, schedule: Q01DX001 (ip), vehicle: saline
  T/C: 160 % of control
dose: 5.0 mg/kg/injection, schedule: Q01DX001 (ip), vehicle: saline
  T/C: 208 % of control
dose: 7.0 mg/kg/injection, schedule: Q01DX001 (ip), vehicle: saline
  T/C: 254 % of control
dose: 8.0 mg/kg/injection, schedule: Q01DX001 (ip), vehicle: saline
  T/C: 284 % of control
dose: 14.0 mg/kg/injection, schedule: Q01DX001 (ip), vehicle: saline
  T/C: 303 % of control

## O=NN(CCCl)C(=O)Nc1ccc2ccccc2c1
dose: 137.0 mg/kg/injection, schedule: Q01DX001 (ip), vehicle: carboxymethylcellulose (CMC)
  T/C: 115 % of control
dose: 200.0 mg/kg/injection, schedule: Q01DX001 (ip), vehicle: carboxymethylcellulose (CMC)
  T/C: 103 % of control
dose: 300.0 mg/kg/injection, schedule: Q01DX001 (ip), vehicle: carboxymethylcellulose (CMC)
  T/C: 108 % of control

## CC1CC(NC(=O)N(CCCl)N=O)CC(C)(C)C1 (stereo not drawn)
dose: 375.0 mg/kg/injection, schedule: Q01DX001 (ip), vehicle: other
  T/C: 103 % of control
dose: 500.0 mg/kg/injection, schedule: Q01DX001 (ip), vehicle: other
  T/C: 124 % of control
dose: 750.0 mg/kg/injection, schedule: Q01DX001 (ip), vehicle: other
  T/C: 116 % of control

Source: PubChem BioAssay AID252 (DTP/NCI, 2004)
